≈ marks a conversion by molar mass, not a printed value. Read-outs that look alike come from different tables or passages of the source. Where a SMILES comes first, the peptide text is derived from it. [ ]: non-standard residue; d: D form. Gly(N(CH2)2(3-indolyl)) = O=C(O)CNCCc1c[nH]c2ccccc12; Nspe = C[C@H](NCC(=O)O)c1ccccc1; Nlys = NCCCCNCC(=O)O
Experiments:
[1] = HPLC to confirm peptoid decomposition after counter ion substitution; assay type: physicochemical; details: HPLC at 220 nm; HCl and AcOH
Procedure: FIGS. 76 to 83 are the HPLC results for Peptoids 1, 10, 11, 14, 15, 29, 32 and 37 of the present inventive concept to confirm the decomposition of the peptoids after counter ion substitution using (a) HCl and (b) AcOH.
Referring to FIGS. […], HPLC was performed for Peptoids 1, 10, 11, 14, 15, 29, 32 and 37 of the present inventive concept. Since the chloride (HCl) is a stronger acid than TFA, it can decompose acid-vulnerable peptoid compounds.

E. coli ATCC25922 = details: for antimicrobial activity (in words): E. coli and S. aureus, compared to Peptoid 1, parent peptoid or TFA salt as stated
How it was run: (§1)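 Cation-adjusted MHB2 cultures (18 h, subcultured 4 h) adjusted to 2×10^5–5×10^5 CFU/mL in medium with 0.02% BSA and 0.001% acetic acid.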

S. aureus ATCC 25923 = system: S. aureus ATCC 25923
How it was run: as §1

Human lung cells (MRC-5) = assay: in vitro; details: for CC50: read-out: LC50 MRC-5, 24 hours incubation, concentration that causes 50% cell lethality
Procedure: (§2) Human lung cells (MRC-5) were purchased from the Korean Cell Line Bank, and human keratinocytes (HaCaT) were purchased from the AmorePacific R&D Center. All cells were grown in a Dulbecco's modified Eagle's medium containing 10% fetal bovine serum under conditions of 5% CO2 and 37° C. To confirm the effect of a peptoid on cell growth, 3-(4,5-dimethylthiazol-2-yl)-5-(3-carboxymethoxyphenyl)-2-(4-sulfophenyl)-2H-tetrazolium (MTS) cell assay was performed to determine cell viability. An aliquot (100 μL) of a batch including 1.3×10^4 MRC-5 cells/mL or 3×10^4 HaCaT cells/mL was dispensed into each well of a 96-well plate. The cells were grown at 37° C. in a 5% CO2 humid atmosphere and allowed to adhere for 24 hours. When the cells reached approximately 70% confluency, the medium was replaced with serial dilutions of the peptoid stock and incubated for 24 hours. 20 μL of a CellTiter 96 aqueous non-radioactive cell proliferation assay reagent (Promega, USA) including a tetrazolium compound was added to each well.
(§3) The contents in the plate were metabolized by incubating at 37° C. for 4 hours. An MTS-formazan product of viable cells was measured at 490 nm using a microplate reader, and cell viability (%) was calculated by Equation 2 below and compared with untreated cells.
(§4) Cell viability (%)=[A/(Acontrol)]×100 [Equation 2]
(§5) In Equation 2, A is the absorbance of a test well, and Acontrol is the average absorbance of a well containing untreated cells.
(§6) The term “nd” shown in Table 19 below is the abbreviation for not determined, and indicates a value that is too small or too large to be measured.

[2] = system: human keratinocytes (HaCaT); assay: in vitro
Procedure: as §2, §3, §4, §5, §6

red blood cells = assay: Hemolysis assay; assay type: cell-based, Sprague-Dawley mouse
How it was run: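 Peptoid is mixed with 10% (v/v) PBS-washed erythrocytes (male Sprague-Dawley […], 13 weeks) and held 1 h at 37 °C. Hemolysis is calculated from 540 nm absorbance of the supernatant, with PBS as 0% and Triton X-100 as 100%.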

[3] = Tables 11-13, 24 hours at 37° C., maximum concentration 25 μM
[4] = Table 18, TFA salt vs counter ion-substituted (HCl, AcOH) peptoids
[5] = Table 18, TFA salt vs counter ion-substituted peptoids

Compound | peptoid decomposition after counter ion substitution (in words) [1] | MIC E. coli ATCC25922 (E. coli ATCC25922; ATCC25922) [µM] | antimicrobial activity (in words) (E. coli ATCC25922) | MIC E. coli ATCC25922 (E. coli ATCC25922; [3]) [µM] | MIC S. aureus ATCC 25923 (S. aureus ATCC 25923; [4]) [µM] | MIC S. aureus ATCC 25923 (S. aureus ATCC 25923; [3]) [µM] | LC50 / animal cell toxicity, MRC-5 (in words) (Human lung cells (MRC-5)) | LC50 / animal cell toxicity, HaCaT (in words) [2] | MIC E. coli ATCC25922 (E. coli ATCC25922; [4]) [µM] | HC10 (red blood cells) | HC50 (red blood cells) | Hmax (100 μM) (red blood cells) [%] | CC50 (Human lung cells (MRC-5)) [µM] | HC10 (red blood cells; [5]) [µM] | HC50 (red blood cells; [5]) [µM] | Hmax (100 μM) (red blood cells; [5]) [%]
C[C@@H](c1ccccc1)N(CC(N)=O)C(=O)CN(C(=O)CN(CCCCN)C(=O)CN(C(=O)CN(C(=O)CN(CCCCN)C(=O)CN(C(=O)CN(C(=O)CN(CCCCN)C(=O)CN(CCc1c[nH]c2ccccc12)C(=O)CN(C(=O)CNCCCCN)[C@@H](C)c1ccccc1)[C@@H](C)c1ccccc1)[C@@H](C)c1ccccc1)[C@@H](C)c1ccccc1)[C@@H](C)c1ccccc1)[C@@H](C)c1ccccc1 [Peptoid 10, H-NLys-Nspe-NhTrp-NLys-Nspe-Nspe-NLys-Nspe-Nspe-NLys-Nspe-Nspe-NH2] | almost no peptoid decomposition occurred | 3.1 (≈ 5.76 µg/mL) | antimicrobial activity was reduced | 3.1 (≈ 5.76 µg/mL) | 0.8 | 1.6 (≈ 2.97 µg/mL) |  |  |  |  |  |  |  |  |  | 
C[C@@H](c1ccccc1)N(CC(=O)N(CCCCN)CC(=O)N(CC(=O)N(CC(=O)N(CCCCN)CC(=O)N(CC(=O)N(CC(=O)N(CCCCN)CC(N)=O)[C@@H](C)c1ccccc1)[C@@H](C)c1ccccc1)[C@@H](C)c1ccccc1)[C@@H](C)c1ccccc1)C(=O)CN(C(=O)CN(CCCCN)C(=O)CN(CCc1c[nH]c2ccccc12)C(=O)CNCCc1c[nH]c2ccccc12)[C@@H](C)c1ccccc1 [Peptoid 37, H-NhTrp-NhTrp-NLys-Nspe-Nspe-NLys-Nspe-Nspe-NLys-Nspe-Nspe-NLys-NH2] (H-[Gly(N(CH2)2(3-indolyl))][Gly(N(CH2)2(3-indolyl))][Nlys][Nspe][Nspe][Nlys][Nspe][Nspe][Nlys][Nspe][Nspe][Nlys]-NH2) | almost no peptoid decomposition occurred | 3.1 (≈ 5.88 µg/mL) | antimicrobial activity was reduced | 3.1 (≈ 5.88 µg/mL) | 1.6 | 1.6 (≈ 3.04 µg/mL) |  |  |  |  |  |  |  |  |  | 
C[C@@H](c1ccccc1)N(CC(N)=O)C(=O)CN(CCCCN)C(=O)CN(CCCCN)C(=O)CN(C(=O)CN(C(=O)CN(CCCCN)C(=O)CN(C(=O)CN(C(=O)CN(CCCCN)C(=O)CN(CCc1c[nH]c2ccccc12)C(=O)CN(CCc1c[nH]c2ccccc12)C(=O)CNCCCCN)[C@@H](C)c1ccccc1)[C@@H](C)c1ccccc1)[C@@H](C)c1ccccc1)[C@@H](C)c1ccccc1 [Peptoid 32-2] |  |  |  |  | 6.3 |  | LC50 values of the peptoids increase | LC50 values of the peptoids increase | 6.3 | 83.0 µM | > 100 µM | 13.8 ± 1.1 |  |  |  | 
C[C@@H](c1ccccc1)N(CC(N)=O)C(=O)CN(C(=O)CN(CCCCN)C(=O)CN(C(=O)CN(C(=O)CN(CCCCN)C(=O)CN(C(=O)CN(C(=O)CN(CCCCN)C(=O)CN(C(=O)CN(C(=O)CNCCCCN)[C@@H](C)c1ccccc1)[C@@H](C)c1ccccc1)[C@@H](C)c1ccccc1)[C@@H](C)c1ccccc1)[C@@H](C)c1ccccc1)[C@@H](C)c1ccccc1)[C@@H](C)c1ccccc1 [Peptoid 1-2, reference compound] (H-[Nlys][Nspe][Nspe][Nlys][Nspe][Nspe][Nlys][Nspe][Nspe][Nlys][Nspe][Nspe]-NH2) |  |  |  |  | 3.1 |  |  |  | 12.5 |  |  |  | 8.6 | 25.0 | 78.6 | 58.2 ± 1.7
C[C@@H](c1ccccc1)N(CC(N)=O)C(=O)CN(C(=O)CN(CCCCN)C(=O)CN(C(=O)CN(C(=O)CN(CCCCN)C(=O)CN(C(=O)CN(C(=O)CN(CCCCN)C(=O)CN(C(=O)CN(C(=O)CNCCCCN)[C@@H](C)c1ccccc1)[C@@H](C)c1ccccc1)[C@@H](C)c1ccccc1)[C@@H](C)c1ccccc1)[C@@H](C)c1ccccc1)[C@@H](C)c1ccccc1)[C@@H](C)c1ccccc1 [Peptoid 1-1, reference compound] (H-[Nlys][Nspe][Nspe][Nlys][Nspe][Nspe][Nlys][Nspe][Nspe][Nlys][Nspe][Nspe]-NH2) |  |  |  |  | 1.6 |  |  |  | 6.3 |  |  |  | 11.8 | 27.6 | 83.3 | 61.5 ± 0.9
C[C@@H](c1ccccc1)N(CC(=O)N(CCCCN)CC(=O)N(CCc1c[nH]c2ccccc12)CC(=O)N(CCc1c[nH]c2ccccc12)CC(N)=O)C(=O)CN(CCCCN)C(=O)CN(CCCCN)C(=O)CN(C(=O)CN(C(=O)CN(CCCCN)C(=O)CN(C(=O)CN(C(=O)CNCCCCN)[C@@H](C)c1ccccc1)[C@@H](C)c1ccccc1)[C@@H](C)c1ccccc1)[C@@H](C)c1ccccc1 [Peptoid 29-1] (H-[Nlys][Nspe][Nspe][Nlys][Nspe][Nspe][Nlys][Nlys][Nspe][Nlys][Gly(N(CH2)2(3-indolyl))][Gly(N(CH2)2(3-indolyl))]-NH2) |  |  |  |  | 12.5 |  | LC50 values of the peptoids increase | LC50 values of the peptoids increase | 12.5 | >100/>100 μM | >100/>100 μM | 4.3 ± 0.3 |  |  |  | 
C[C@@H](c1ccccc1)N(CC(N)=O)C(=O)CN(CCCCN)C(=O)CN(CCCCN)C(=O)CN(C(=O)CN(C(=O)CN(CCCCN)C(=O)CN(C(=O)CN(C(=O)CN(CCCCN)C(=O)CN(CCc1c[nH]c2ccccc12)C(=O)CN(CCc1c[nH]c2ccccc12)C(=O)CNCCCCN)[C@@H](C)c1ccccc1)[C@@H](C)c1ccccc1)[C@@H](C)c1ccccc1)[C@@H](C)c1ccccc1 [Peptoid 32-1] |  |  |  |  | 6.3 |  |  | LC50 values of the peptoids increase | 6.3 | >100/>100 μM | >100/>100 μM | 8.7 ± 0.6 |  |  |  | 
C[C@@H](c1ccccc1)N(CC(=O)N(CCCCN)CC(=O)N(CCc1c[nH]c2ccccc12)CC(=O)N(CCc1c[nH]c2ccccc12)CC(N)=O)C(=O)CN(CCCCN)C(=O)CN(CCCCN)C(=O)CN(C(=O)CN(C(=O)CN(CCCCN)C(=O)CN(C(=O)CN(C(=O)CNCCCCN)[C@@H](C)c1ccccc1)[C@@H](C)c1ccccc1)[C@@H](C)c1ccccc1)[C@@H](C)c1ccccc1 [Peptoid 29-2] (H-[Nlys][Nspe][Nspe][Nlys][Nspe][Nspe][Nlys][Nlys][Nspe][Nlys][Gly(N(CH2)2(3-indolyl))][Gly(N(CH2)2(3-indolyl))]-NH2) |  |  |  |  | 12.5 |  | LC50 values of the peptoids increase | LC50 values of the peptoids increase | 6.3 | >100/>100 μM | >100/>100 μM | 5.2 ± 0.2 |  |  |  | 

Source: patent US20240226228A1, “ANTIMICROBIAL PEPTOID HAVING IMPROVED SELECTIVITY AND ANTIMICROBIAL COMPOSITION COMPRISING SAME” (priority 2021, published 2024)
